Results reported in patent publication US4338445A, “N-(Carbonylamino)-tetrahydropyridyl derivatives” (Canadian Patents & Development Limited, priority 1979, dated 1982).
Entries after “also recorded” stand apart in the source; their conditions may differ. Where two headings read alike, the source gives them in different places.

Legend:
[1] = system: phenylquinone-induced muscular writhing; experiment: Analgesic activity, phenylquinone-writhing test; format: in vivo, Swiss albino mice; conditions: for Physiological activity: analgesic (in words): mouse, in vivo
Experimental: (§1) The compounds of formula (1) have anti-inflammatory, analgesic, hyperglycemic, and/or hypoglycemic properties. […] A. Winter, p.190-202, Int. Symposium on Non-Steroidal Anti-Inflammatory Drugs, Milan, 1964, Excerpta Medica Foundation, Amsterdam. […] J. Pharmac. Chemother. 32, 295 (1968). […] Chem. 3, 99 (1961) and by Barthelmai et al., in Klin. Wchschr. 40, 585 (1962).
(§2) Initially the activity of the compound tested on an animal was determined at a single dose. If the substance was active at this dose, it was subjected to limited repeat testing. If the presence of activity was confirmed by repetition of the testing, a dose response relation was constructed and the effective dose (ED50) determined. If toxicity was encountered with the initial dose, the dose was reduced until one was reached which was tolerated by the animals tested.
Substances were administered subcutaneously to five Swiss albino mice, weighing 18 to 22 grams, before determining their activity in the phenylquinone-writhing test (see Collier et al, cited above). The active ingredients were suspended in a solution of physiological saline and "Tween 80™" surfactant. A dose amounting to 10 milliliters of physiological saline solution and active ingredient per kilogram of bodyweight was administered to the mice according to the dosage as set out in Table 2. The test results are shown in Table 2, the compounds tested being compared to Aspirin™ and dextropropoxyphene™.

[2] = system: blood glucose; experiment: Determination of blood glucose (hyperglycemic / hypoglycemic activity); format: in vivo, Wistar rats; conditions: for % change in blood-glucose concentrations, post-treatment 2 hours / % change in blood-glucose concentrations, post-treatment 4 hours / ED50: oral, fasted rats; for % change in blood-glucose concentrations, post-treatment 2 hours / % change in blood-glucose concentrations, post-treatment 4 hours: 100 mg/kg; for ED50: Rattus norvegicus, dose elevating blood glucose by 50 percent; for Physiological activity: hyperglycemic (in words) / Physiological activity: hypoglycemic (in words): rat, in vivo
Experimental: as §1, §2
Compounds were suspended in distilled water and were administered orally to overnight-fasted Wistar rats. Capillary blood samples were obtained from the tail at zero, two, and four hours post-treatment and the sera derived from these samples were analyzed for glucose by spectrophotometric determination of enzymatically produced NADH2 (reduced form of nicotinamide adenine dinucleotide), using the commercial reagent "Escalab G-15™" according to the method described by Holland et al and by Barthelmai et al, both cited above. The test results are shown in Tables 4 and 5, and the ED50 values shown in Table 4 were calculated as the dose of compound which elevated blood glucose levels by 50 percent.

[3] = system: carrageenan-induced paw edema; experiment: Anti-inflammatory activity, carrageenan-induced paw edema; parameters: species or system Sprague-Dawley rats; conditions: rat, in vivo
Experimental: as §1, §2
Substances were administered subcutaneously to six Sprague-Dawley rats, weighing 100-120 g. A suspension of 0.03% carageenan was injected under the plantar skin of a hind paw. The increase in volume of the inflamed paw was measured 3 and 5 hours after drug administration.

[4] = Mus musculus, sc, mice, 128 mg/kg, read-out: Response % inhibition
[5] = Mus musculus, sc, mice, read-out: Response % inhibition
[6] = Mus musculus, sc, mice, Litchfield and Wilcoxon, read-out: ED50
[7] = 2 hours, read-out: ED50, hyperglycemic activity, post-treatment 2 hours
[8] = 4 hours, read-out: ED50, hyperglycemic activity, post-treatment 4 hours

CC(=O)Oc1ccccc1C(=O)O [Aspirin, reference compound]
ED50 ([1]; Mus musculus, sc): 52 mg/kg

CCCNC(=O)NS(=O)(=O)c1ccc(Cl)cc1 [Chlorpropamide, reference compound]
% change in blood-glucose concentrations, post-treatment 2 hours ([2]; 2 hours): > -40%
% change in blood-glucose concentrations, post-treatment 4 hours ([2]; 4 hours): > -40%

O=C(NN1CC=CCC1)c1cccc[n+]1[O-] [Compound A-36, N-(2-pyridylcarbonylamino-1-oxide)-1,2,3,6-tetrahydropyridine]
Physiological activity: anti-inflammatory (in words) [3]: anti-inflammatory
inhibition in vivo at 128 mg/kg [1, 4]: 55.3%
Physiological activity: analgesic (in words) [1]: analgesic

COC(=O)N1C=CC(C(=O)NN2CC=CCC2)=CC1 [Compound A-45, N-[4-(1-methoxycarbonyl-1,2-dihydropyridyl)carbonylamino]-1,2,3,6-tetrahydropyridine]
Physiological activity: anti-inflammatory (in words) [3]: striking anti-inflammatory action, comparing favourably with the standard compound used
inhibition in vivo at 16 mg/kg [1, 5]: 61%
inhibition in vivo at 32 mg/kg [1, 5]: 61%
inhibition in vivo at 128 mg/kg [1, 4]: 97%
inhibition in vivo at 256 mg/kg [1, 5]: 95%
Physiological activity: analgesic (in words) [1]: active analgesics; also recorded: analgesic

O=C(Cc1cccnc1)NN1CC=CCC1 [Compound A-48, N-(3-picolylcarbonylamino)-1,2,3,6-tetrahydropyridine]
Physiological activity: anti-inflammatory (in words) [3]: striking anti-inflammatory action, comparing favourably with the standard compound used
inhibition in vivo at 8 mg/kg ([1]; Mus musculus, sc, mice, 8 mg/kg, read-out: Response % inhibition): 28%
inhibition in vivo at 16 mg/kg [1, 5]: 45%
inhibition in vivo at 32 mg/kg [1, 5]: 94%
inhibition in vivo at 128 mg/kg [1, 4]: 100%
inhibition in vivo at 256 mg/kg [1, 5]: 100%
ED50 [1, 6]: 14.5 mg/kg
Physiological activity: analgesic (in words) [1]: active analgesics; also recorded: analgesic

COC(=O)N1CC=C(C(=O)NN2CC=CCC2)CC1 [Compound A-49, N-[4-(1-methoxycarbonyl-1,2,3,6-tetrahydropyridyl)carbonylamino]-1,2,3,6-tetrahydropyridine]
Physiological activity: anti-inflammatory (in words) [3]: anti-inflammatory
inhibition in vivo at 64 mg/kg [1, 5]: 3%
inhibition in vivo at 128 mg/kg [1, 4]: 78%
inhibition in vivo at 256 mg/kg [1, 5]: 95%
Physiological activity: analgesic (in words) [1]: active analgesics; also recorded: analgesic

CN1CC=C(C(=O)NN2CC=CCC2)CC1 [Compound A-50, N-[4-(1-methyl-1,2,3,6-tetrahydropyridyl)carbonylamino]-1,2,3,6-tetrahydropyridine]
inhibition in vivo at 256 mg/kg [1, 5]: 47%
Physiological activity: analgesic (in words) [1]: analgesic

O=C(CCc1ccccc1)NN1CC=CCC1 [Compound A-55, N-(phenylethylcarbonylamino)-1,2,3,6-tetrahydropyridine]
Physiological activity: anti-inflammatory (in words) [3]: striking anti-inflammatory action, comparing favourably with the standard compound used
inhibition in vivo at 120 mg/kg [1, 5]: 42%
Physiological activity: analgesic (in words) [1]: analgesic

O=C(COc1ccccc1)NN1CC=CCC1 [Compound A-62, N-(phenoxymethylenecarbonylamino)-1,2,3,6-tetrahydropyridine]
Physiological activity: anti-inflammatory (in words) [3]: striking anti-inflammatory action, comparing favourably with the standard compound used
ED50 [2, 7]: 41 mg/kg
ED50 [2, 8]: 53 mg/kg
Physiological activity: hyperglycemic (in words) [2]: significant hyperglycemic activity; also recorded: hypergylcemic
inhibition in vivo at 25 mg/kg ([1]; Mus musculus, sc, mice, 25 mg/kg, read-out: Response % inhibition): 50%
ED50 [1, 6]: 25 mg/kg
Physiological activity: analgesic (in words) [1]: active analgesics; also recorded: analgesic

O=C(NN1CC=CCC1)C1CCCCC1 [Compound A-63, N-(cyclohexylcarbonylamino)-1,2,3,6-tetrahydropyridine]
Physiological activity: anti-inflammatory (in words) [3]: striking anti-inflammatory action, comparing favourably with the standard compound used
ED50 [2, 7]: 36.5 mg/kg
ED50 [2, 8]: 53 mg/kg
Physiological activity: hyperglycemic (in words) [2]: significant hyperglycemic activity
inhibition in vivo at 16.5 mg/kg ([1]; Mus musculus, sc, mice, 16.5 mg/kg, read-out: Response % inhibition): 50%
ED50 [1, 6]: 16.5 mg/kg
Physiological activity: analgesic (in words) [1]: active analgesics; also recorded: analgesic

O=C(Cc1ccc2c(c1)OCO2)NN1CC=CCC1 [Compound A-70, N-(3,4-methylenedioxyphenylmethylenecarbonylamino)-1,2,3,6-tetrahydropyridine]
inhibition in vivo at 60 mg/kg ([1]; Mus musculus, sc, mice, 60 mg/kg, read-out: Response % inhibition): 80%
inhibition in vivo at 120 mg/kg [1, 5]: 91%
Physiological activity: analgesic (in words) [1]: active analgesics; also recorded: analgesic

COc1ccc(C(=O)NN2CC=CCC2)cc1 [Compound A-77, N-(4-methoxyphenylcarbonylamino)-1,2,3,6-tetrahydropyridine]
% change in blood-glucose concentrations, post-treatment 2 hours ([2]; 2 hours): -69%
% change in blood-glucose concentrations, post-treatment 4 hours ([2]; 4 hours): -26%
Physiological activity: hypoglycemic (in words) [2]: potent hypoglycemic activity
inhibition in vivo at 128 mg/kg [1, 4]: 31.4%
Physiological activity: analgesic (in words) [1]: analgesic

Cc1ccc(C(=O)NN2CC=CCC2)cc1 [Compound A-78, N-(4-methylphenylcarbonylamino)-1,2,3,6-tetrahydropyridine]
% change in blood-glucose concentrations, post-treatment 2 hours ([2]; 2 hours): -73%
% change in blood-glucose concentrations, post-treatment 4 hours ([2]; 4 hours): -41%
Physiological activity: hypoglycemic (in words) [2]: potent hypoglycemic activity
inhibition in vivo at 64 mg/kg [1, 5]: 92.4%
Physiological activity: analgesic (in words) [1]: active analgesics; also recorded: analgesic

O=C(NN1CC=CCC1)c1ccc(Cl)cc1 [Compound A-79, N-(4-chlorophenylcarbonylamino)-1,2,3,6-tetrahydropyridine]
% change in blood-glucose concentrations, post-treatment 4 hours ([2]; 4 hours): -26%
Physiological activity: hypoglycemic (in words) [2]: potent hypoglycemic activity
inhibition in vivo at 64 mg/kg [1, 5]: 33.9%
Physiological activity: analgesic (in words) [1]: analgesic

O=C(NN1CC=CCC1)c1ccc(Cl)c(Cl)c1 [Compound A-80, N-(3,4-dichlorophenylcarbonylamino)-1,2,3,6-tetrahydropyridine]
% change in blood-glucose concentrations, post-treatment 2 hours ([2]; 2 hours): -50%
% change in blood-glucose concentrations, post-treatment 4 hours ([2]; 4 hours): -50%
Physiological activity: hypoglycemic (in words) [2]: potent hypoglycemic activity
inhibition in vivo at 128 mg/kg [1, 4]: 72%
Physiological activity: analgesic (in words) [1]: active analgesics; also recorded: analgesic

CCC(=O)O[C@](Cc1ccccc1)(c1ccccc1)[C@H](C)CN(C)C [Dextropropoxyphene, reference compound]
ED50 ([1]; Mus musculus, sc): 56 mg/kg

N-(benzoylamino)-3(diethylaminocarbonyl)-1,2,3,6-tetrahydropyridine [Compound A-43]
Physiological activity: analgesic (in words) [1]: analgesic
Response % inhibition ([1]; s.c., mice, 128 mg/kg): 39.0%
